In the supplement of paper PMC10307832:

Experiments:
Assay in all cases: relative viability (nuclei count vs DMSO), 5 days (fraction); higher = more cells survive
[1] = compound: O=C(NCCCNc1nc(Nc2cccc(NC(=O)N3CCCC3)c2)ncc1I)c1cccs1 [BX 795] + CC(=O)Nc1cccc(-n2c(=O)n(C3CC3)c(=O)c3c(Nc4ccc(I)cc4F)n(C)c(=O)c(C)c32)c1 [Trametinib] (partner 0.02 µM)
How it was run: (§1)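 Lung cancer cell lines were pin-tool dosed in 1536-well plates on the day after seeding, with either a lone drug or a fixed anchor-drug dose plus five library-drug doses (not always all listed) in √10 steps. Nuclei were counted on 4× images after 5 days. Relative viability is the ratio of treated-well to vehicle-well nuclei counts, with each value a median of duplicate plates.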

[2] = compound: O=C(NCCCNc1nc(Nc2cccc(NC(=O)N3CCCC3)c2)ncc1I)c1cccs1 [BX 795] + CC1(C)CCC(c2ccc(Cl)cc2)=C(CN2CCN(c3ccc(C(=O)NS(=O)(=O)c4ccc(N[C@H](CCN5CCOCC5)CSc5ccccc5)c(S(=O)(=O)C(F)(F)F)c4)cc3)CC2)C1 [Navitoclax] (partner 0.5 µM)
How it was run: as §1

[3] = compound: O=C(NCCCNc1nc(Nc2cccc(NC(=O)N3CCCC3)c2)ncc1I)c1cccs1 [BX 795] + CCNC(=O)c1noc(-c2cc(C(C)C)c(O)cc2O)c1-c1ccc(CN2CCOCC2)cc1 [Luminespib] (partner 0.01 µM)
How it was run: as §1

[4] = compound: O=C(NCCCNc1nc(Nc2cccc(NC(=O)N3CCCC3)c2)ncc1I)c1cccs1 [BX 795] + CS(=O)(=O)N1CCN(Cc2cc3nc(-c4cccc5[nH]ncc45)nc(N4CCOCC4)c3s2)CC1 [Pictilisib] (partner 1 µM)
How it was run: as §1

[5] = compound: O=C(NCCCNc1nc(Nc2cccc(NC(=O)N3CCCC3)c2)ncc1I)c1cccs1 [BX 795] + C[C@@H](Oc1cc(-c2cnn(C3CCNCC3)c2)cnc1N)c1c(Cl)ccc(F)c1Cl [Crizotinib] (partner 1 µM)
How it was run: as §1

Cell Line	relative viability ([1]; first compound 0.04 µM)	relative viability ([1]; first compound 0.4 µM)	relative viability ([1]; first compound 1.265 µM)	relative viability ([2]; first compound 0.04 µM)	relative viability ([2]; first compound 0.1265 µM)	relative viability ([2]; first compound 0.4 µM)	relative viability ([2]; first compound 1.265 µM)	relative viability ([3]; first compound 0.04 µM)	relative viability ([3]; first compound 0.1265 µM)	relative viability ([3]; first compound 0.4 µM)	relative viability ([3]; first compound 1.265 µM)	relative viability ([4]; first compound 0.04 µM)	relative viability ([4]; first compound 0.1265 µM)	relative viability ([4]; first compound 0.4 µM)	relative viability ([4]; first compound 1.265 µM)	relative viability ([5]; first compound 0.04 µM)	relative viability ([5]; first compound 0.1265 µM)	relative viability ([5]; first compound 0.4 µM)	relative viability ([5]; first compound 1.265 µM)	relative viability ([1]; first compound 0.1265 µM)
NCI-H1792	0.425	0.525	0.509	0.624	0.556	0.708	0.568	0.477	0.336	0.432	0.384	0.286	0.269	0.24	0.191	1.01	1.08	1.09	0.892	
NCI-H1915	0.315	0.304	0.265	0.824	0.782	0.766	0.691	0.688	0.891	0.71	0.624	0.98	0.831	0.954	0.798	0.904	0.95	0.85	0.765	0.271
NCI-H1944	0.467	0.538	0.374	1.14	1.11	1.07	0.953	0.739	0.729	0.758	0.595	0.376	0.329	0.367	0.363	1.18	1.03	1.09	0.741	0.377
NCI-H1975	0.383	0.316	0.316	1.19	1.24	1.16	0.985	0.228	0.427	0.139	0.183	0.3	0.328	0.26	0.224	0.99	1.04	0.879	0.643	0.358
NCI-H1993	0.554	0.504	0.561	0.868	0.857	0.846	0.614	0.686	1.1	0.726	0.532	0.83	0.79	0.793	0.806	0.888	0.891	0.795	0.665	0.439
NCI-H2009	0.264	0.274	0.179	1.23	1.1	1.19	0.853	1.02	0.932	1.11	0.83	0.777	0.744	0.823	0.626	1.02	0.972	0.874	0.645	0.227
NCI-H2023	0.797	0.456	0.233	0.933	1.08	0.36	0.645	0.766	0.613	0.442	0.272	0.152	0.239	0.188	0.197	0.592	0.626	0.269	0.282	0.468
NCI-H2085	0.645	0.669	0.484	1.12	1.17	1.27	1.01	0.38	0.416	0.441	0.332	0.463	0.454	0.433	0.489	0.911	0.841	0.843	0.732	0.512
NCI-H2087	0.235	0.242	0.221	0.901	1	1.25	0.801	0.188	0.199	0.157	0.147	0.999	1.02	1.03	0.756	0.745	0.963	0.868	0.516	0.163
NCI-H2126	0.611	0.685	0.534	0.795	0.826	0.965	0.787	0.902	0.955	0.812	0.944	0.479	0.462	0.566	0.448	1.04	0.984	1.09	0.945	0.537
NCI-H2170	0.948	0.93	0.951	0.674	0.62	0.659	0.53	0.83	0.541	0.39	0.544	0.3	0.283	0.283	0.249	1.17	1.27	1.07	1.13	0.945
NCI-H2228	0.689	0.389	0.349	0.894	0.811	0.857	0.486	0.104	0.127	0.122	0.169	0.517	0.439	0.377	0.239	0.635	0.5	0.572	0.288	0.713
NCI-H2347	0.282	0.29	0.275	1.02	0.743	1.05	0.76	0.534	0.563	0.751	0.607	0.818	0.492	0.851	0.722	0.8	0.616	0.801	0.545	0.239
NCI-H2405	0.557	0.44	0.534	0.827	0.848	0.588	0.7	0.718	0.714	0.573	0.585	0.373	0.364	0.295	0.319	0.806	0.842	0.635	0.794	0.556
NCI-H3122	0.216	0.248	0.26	1.03	1	1.04	1.05	0.0821	0.114	0.0793	0.0891	0.588	0.656	0.588	0.595	0.293	0.266	0.282	0.296	0.312
